# Where two headings read alike, the source gives them in different places.
# Experiments:
# [1] = cited from earlier work
# [2] = tested on: plasma from Sprague Dawley rats; assay: Plasma protein binding by rapid equilibrium dialysis, rat plasma
# Description: (§1) Protein binding was assessed in plasma derived from athymic nude (nu/nu) mice, Sprague Dawley rats, Cynomolgus monkeys, and humans. Plasma from athymic nude mice and Sprague Dawley rats was collected from animals housed locally. […] Plasma was collected by centrifuging the whole blood immediately upon collection, stored at 4 °C, and used within one week of storage for protein binding studies. The plasma was spiked with the compound to prepare 1, 3, and 10 µM final concentrations (0.1% DMSO (v/v)). Spiked plasma (100 µL) and PBS (350 µL) were placed in their respective chambers in the Pierce™ RED Device (12K MWCO; Linden Bioscience, Research Triangle Park, NC, USA) and incubated in a Talboys microplate shaker at 37 °C and 250 rpm for 4 h to achieve equilibrium. Post-dialysis samples were collected from the plasma and buffer chambers, matrix-matched with PBS and plasma, respectively, and analyzed by LC-MS/MS as detailed below. The experiments were performed in triplicate, and the unbound percentage was calculated based on the following equation [13]: fu=PBS chamber area ratio/Plasma chamber area ratio;Area ratio=analyte area/ISTD area
# (§2) All samples were processed and analyzed by LC-MS/MS using a bioanalytical method validated according to the FDA’s Bioanalytical Guidance, essentially as described by Eckenrode et al. with some modifications [15]. […] Plasma samples above the calibration curve range were diluted, along with quality control (QC) samples, and values were accepted when the interpolated concentrations were within 15% of the nominal values. […] Analyte separation and detection were performed on a Sciex Exion HPLC system equipped with a C18 analytical column (Phenomenex Synergi 4 µm Fusion-RP 80A; 50 mm × 2 mm with a guard column) and coupled to a hybrid triple-quadrupole/linear ion trap mass spectrometer (Sciex QTrap 6500+ or 7500+, Framingham, MA, USA). A 0.6 mL/min gradient of 0.005% formic acid in water and 0.005% formic acid in acetonitrile was used to elute the analytes within a 5 min time window. […] The internal standard was the MTM oxime–tryptophan [5]. […]
# [3] = tested on: plasma from Cynomolgus monkeys; assay: Plasma protein binding by rapid equilibrium dialysis, monkey plasma; details: Cynomolgus macaque plasma
# Description: as §1, §2
# [4] = Plasma PK in male athymic nude mice, IV bolus 2 mg/kg (Study 1); details: male mouse, 2 mg/kg IV bolus
# Description: Four separate PK studies were conducted using nu/nu mice. For studies using destructive sampling, the animals were anesthetized under isoflurane gas and samples were collected through intracardiac puncture in heparinized syringes. […] Blood samples were collected (n = 3 mice/time point) by cardiac puncture at 5 and 30 min and at 1.5, 3, and 6 h. […] Blood samples (n = 3 mice/time point) were collected by cardiac puncture at 5 min, 30 min, 2 h, and 5 h. […] Three groups (n = 9/group) of nu/nu mice were dosed at 0.3 mg/kg, 1 mg/kg, and 3 mg/kg. The mice at each dose level were randomized into three groups of three mice. The sampling time points for the three doses were as follows: 10 min, 20 min, 30 min, 45 min, 1 h, 1.5 h, 2 h, 2.5 h, and 3 h for the 0.3 mg/kg group; 5 min, 15 min, 30 min, 1 h, 2 h, 3 h, 4 h, 6 h, and 8 h for the 1 mg/kg group; and 5 min, 15 min, 30 min, 1 h, 2 h, 4 h, 6 h, 9 h, and 12 h for the 3 mg/kg group. […] Blood samples (n = 2 mice/time point) were collected by cardiac puncture at 10 min, 30 min, 1 h, 3 h, and 6 h. After collection, blood samples were immediately centrifuged at 4000 g for 2 min, and plasma samples were immediately collected and placed on dry ice, followed by storage at −80 °C until analysis.
# Plasma samples above the calibration curve range were diluted, along with quality control (QC) samples, and values were accepted when the interpolated concentrations were within 15% of the nominal values.
# [5] = Stability of dosing solutions; details: […]; 5% Solutol HS-15/95% PBS pH 8)
# [6] = Cassette microdose plasma PK in male athymic nude mice, 69 µg/kg (Study 5)
# Description: (§3) All samples were processed and analyzed by LC-MS/MS using a bioanalytical method validated according to the FDA’s Bioanalytical Guidance, essentially as described by Eckenrode et al. with some modifications [15]. […] Plasma samples above the calibration curve range were diluted, along with quality control (QC) samples, and values were accepted when the interpolated concentrations were within 15% of the nominal values. The expected % recovery for both compounds was >90% [15, 16]. Analyte separation and detection were performed on a Sciex Exion HPLC system equipped with a C18 analytical column (Phenomenex Synergi 4 µm Fusion-RP 80A; 50 mm × 2 mm with a guard column) and coupled to a hybrid triple-quadrupole/linear ion trap mass spectrometer (Sciex QTrap 6500+ or 7500+, Framingham, MA, USA). A 0.6 mL/min gradient of 0.005% formic acid in water and 0.005% formic acid in acetonitrile was used to elute the analytes within a 5 min time window. […] The internal standard was the MTM oxime–tryptophan [5]. The instruments were controlled and the data were integrated and processed using Sciex OS software version 3.3.1.43.
# (§4) Only concentrations above the limit of quantification were used for NCA. The linear-up log-down trapezoidal integration method was used to estimate the area under the curve from time zero to the last measurable concentration–time point (AUClast). The terminal elimination rate constant (ke) was estimated by log-linear regression using the last three data points of the concentration–time profiles.
# [7] = male monkey n=1, high microdose cassette: MTM 13.18 µg/kg, MTMSA-Trp 4.19 µg/kg, IV infusion
# Description: Two separate cassette dosing PK studies were conducted using male cynomolgus monkeys. […] The blood samples were processed and stored as described above.
# as §3
# human plasma = assay: Plasma protein binding by rapid equilibrium dialysis, human plasma
# Description: as §1
# (§5) All samples were processed and analyzed by LC-MS/MS using a bioanalytical method validated according to the FDA’s Bioanalytical Guidance, essentially as described by Eckenrode et al. with some modifications [15]. […] Plasma samples above the calibration curve range were diluted, along with quality control (QC) samples, and values were accepted when the interpolated concentrations were within 15% of the nominal values. […] Analyte separation and detection were performed on a Sciex Exion HPLC system equipped with a C18 analytical column (Phenomenex Synergi 4 µm Fusion-RP 80A; 50 mm × 2 mm with a guard column) and coupled to a hybrid triple-quadrupole/linear ion trap mass spectrometer (Sciex QTrap 6500+ or 7500+, Framingham, MA, USA). A 0.6 mL/min gradient of 0.005% formic acid in water and 0.005% formic acid in acetonitrile was used to elute the analytes within a 5 min time window. […] The internal standard was the MTM oxime–tryptophan [5]. The instruments were controlled and the data were integrated and processed using Sciex OS software version 3.3.1.43.
# [8] = Plasma PK in male Sprague Dawley rats, IV bolus 0.5 mg/kg (Study 2); details: male rat, 0.5 mg/kg IV bolus
# Description: Rat PK studies were conducted using male Sprague Dawley rats (Study 2; Table 1). […] Blood samples were collected at three different time points by saphenous bleeding. The collection time points were at 5 min and 20 min and at 1, 3, 6, and 9 h. The blood samples were processed and stored as described above.
# as §3, §4
# [9] = Cassette microdose plasma PK in male Sprague Dawley rats, 28 µg/kg (Study 6)
# Description: as §3, §4
# [10] = tested on: plasma from athymic nude (nu/nu) mice; assay: Plasma protein binding by rapid equilibrium dialysis, mouse plasma; details: for Fraction Unbound (%): athymic nude mouse plasma
# Description: as §1, §5
# [11] = set-up: method as in doi:10.1158/1535-7163.TARG-23-B150; details: across different multi-day dosing schedules; cited from earlier work
# [12] = female athymic nude mice, 0.3 mg/kg IV bolus
# [13] = female athymic nude mice, 1 mg/kg IV bolus
# [14] = female athymic nude mice, 3 mg/kg IV bolus
# [15] = female athymic nude mice, 5 mg/kg IV bolus
# [16] = female athymic nude mice, 10 mg/kg IV bolus
# [17] = male mouse, 69 µg/kg each, cassette IV bolus
# [18] = male rat, 28 µg/kg each, cassette IV bolus
molecule,measurement,setting,value
CO[C@H](C(=O)C(C)=O)[C@@H]1Cc2cc3cc(OC4C[C@@H](OC5C[C@@H](O)[C@H](O)C(C)O5)[C@H](O)C(C)O4)c(C)c(O)c3c(O)c2C(=O)[C@H]1OC1C[C@@H](OC2C[C@@H](OC3C[C@](C)(O)[C@H](O)C(C)O3)[C@@H](O)C(C)O2)[C@H](O)C(C)O1 (some centres unmarked) [MTM-SDK],systemic clearance,[1]; in vivo,high systemic clearance
COC(=O)[C@H](Cc1c[nH]c2ccccc12)NC(=O)[C@H](Cc1ccccc1)NC(=O)CO/N=C(\[C@@H](O)[C@@H](C)O)[C@@H](OC)[C@@H]1Cc2cc3cc(O[C@H]4C[C@@H](O[C@H]5C[C@@H](O)[C@H](O)[C@@H](C)O5)[C@H](O)[C@@H](C)O4)c(C)c(O)c3c(O)c2C(=O)[C@H]1O[C@H]1C[C@@H](O[C@H]2C[C@@H](O[C@H]3C[C@](C)(O)[C@H](O)[C@@H](C)O3)[C@@H](O)[C@@H](C)O2)[C@H](O)[C@@H](C)O1 [MTMox32E],systemic clearance,[1]; in vivo,low systemic clearance
CO[C@H](C(O)C(C)=O)[C@@H]1Cc2cc3cc(OC4C[C@@H](OC5C[C@@H](O)[C@H](O)C(C)O5)[C@H](O)C(C)O4)c(C)c(O)c3c(O)c2C(=O)[C@H]1OC1C[C@@H](OC2C[C@@H](OC3C[C@](C)(O)[C@H](O)C(C)O3)[C@@H](O)C(C)O2)[C@H](O)C(C)O1 (some centres unmarked) [MTM-SK],systemic clearance,[1]; in vivo,high systemic clearance
CO[C@@H]([C@@H]1Cc2cc3cc(O[C@H]4CC(O[C@H]5CC(O)[C@H](O)C(C)O5)[C@H](O)C(C)O4)c(C)c(O)c3c(O)c2C(=O)[C@H]1O[C@H]1CC(O[C@H]2CC(O[C@H]3CC(O)[C@H](O)C(C)O3)[C@@H](O)C(C)O2)[C@H](O)C(C)O1)[C@@H](O)C(C)=O (some centres unmarked) [EC-8042],systemic clearance,[1]; same as MTM,high systemic clearance
mithramycin SA-Trp [MTMSA-Trp],Fraction Unbound (%),[2]; 1 µM,2.41 ± 1.29%
same,Fraction Unbound (%),[2]; 3 µM,3.85 ± 0.08%
same,Fraction Unbound (%),[2]; 10 µM,3.88 ± 0.54%
same,Fraction Unbound (%),[3]; 1 µM,1.03 ± 0.27%
same,Fraction Unbound (%),[3]; 3 µM,1.02 ± 0.09%
same,Fraction Unbound (%),[3]; 10 µM,1.14 ± 0.15%
same,AUC0–inf,[4],"38,564 ng/mL·h"
same,CL,[4],0.867 mL/min/kg
same,Extrapolated AUC0–inf,[4],8.07%
same,Terminal t1/2,[4],1.85 h
same,Vd,[4],0.138 L/kg
same,"estimated systemic clearance, average","average over 1, 3, 5, and 10 mg/kg, female athymic nude mice",approximately 41 mL/h/kg
same,AUC0–inf,[12],4373 ng·h/mL
same,CL,[12],1.15 mL/min/kg
same,Extrapolated AUC0–inf,[12],0.4%
same,Vd,[12],0.045 L/kg
same,t1/2,[12],0.5 h
same,AUC0–inf,[13],"24,419 ng/mL·h"
same,CL,[13],0.683 mL/min/kg
same,Extrapolated AUC0–inf,[13],0.2%
same,Vd,[13],0.075 L/kg
same,t1/2,[13],1.3 h
same,AUC0–inf,[14],"91,778 ng/mL·h"
same,CL,[14],0.55 mL/min/kg
same,Extrapolated AUC0–inf,[14],0.2%
same,Vd,[14],0.123 L/kg
same,t1/2,[14],2.6 h
same,CL,[15],0.6 mL/min/kg
same,Extrapolated AUC0–inf,[15],6.5%
same,Vd,[15],0.08 L/kg
same,t1/2,[15],1.5 h
same,AUC0–inf,[16],"216,281 ng/mL·h"
same,CL,[16],0.767 mL/min/kg
same,Extrapolated AUC0–inf,[16],5.6%
same,Vd,[16],0.081 L/kg
same,t1/2,[16],1.2 h
same,linear kinetics range,"female athymic nude mice, IV bolus",1 to 10 mg/kg
same,dose proportionality,"mice, 1, 3, and 10 mg/kg doses",linear pharmacokinetics
same,stability of dosing solution following formulation,[5],at least 11 days
same,AUC0–inf,[6]; [17],569 ng·h/mL
same,CL,[6]; [17],2.02 mL/min/kg
same,Extrapolated AUC0–inf,[6]; [17],3.2%
same,Terminal t1/2,[6]; [17],1.8 h
same,Vd,[6]; [17],0.318 L/kg
same,change of systemic clearance between microgram- and milligram-level doses,"[6]; mice, 69 µg/kg vs 2 mg/kg",approximately 0.4 fold
same,AUC0–inf,[7],181 ng·h/mL
same,CL,[7],0.383 mL/min/kg
same,Extrapolated AUC0–inf,[7],4.99%
same,Terminal t1/2,[7],0.78 h
same,Vd,[7],0.026 L/kg
same,Fraction Unbound (%),human plasma; 1 µM,<1%
same,Fraction Unbound (%),human plasma; 3 µM,<1%
same,Fraction Unbound (%),human plasma; 10 µM,<1%
same,unbound fraction,human plasma; across tested concentrations,< 1%
same,AUC0–inf,[8],3486 ng·h/mL
same,CL,[8],2.38 mL/min/kg
same,Extrapolated AUC0–inf,[8],1.43%
same,Terminal t1/2,[8],1.56 h
same,Vd,[8],0.324 L/kg
same,AUC0–inf,[9]; [18],223 ng·h/mL
same,CL,[9]; [18],2.1 mL/min/kg
same,Extrapolated AUC0–inf,[9]; [18],8.4%
same,Terminal t1/2,[9]; [18],2.4 h
same,Vd,[9]; [18],0.428 L/kg
same,change of systemic clearance between microgram- and milligram-level doses,"[9]; rats, 28 µg/kg vs 0.5 mg/kg",remained similar
same,Fraction Unbound (%),[10]; 1 µM,<1%
same,Fraction Unbound (%),[10]; 3 µM,<1%
same,Fraction Unbound (%),[10]; 10 µM,<1%
same,unbound fraction,"[10]; nu/nu mouse plasma, across tested concentrations (1, 3, 10 µM)",< 1%
same,maximum tolerated doses,[11],1 to 3 mg/kg

# — publication PMC12197275, “Preclinical Pharmacokinetic Evaluation of Mithramycin and Mithramycin SA Tryptophan-Conjugated Analog” (Pharmaceutics, 2025)
